# Test results taken from patent US6239130A, “Phosphodiesterase 4-inhibiting diazepinoindolones” (Warner-Lambert Company, priority 1997, dated 2001).
# pIC50: −log10 of the molar value.
# System: PDE4 enzyme of human origin
# Experiment: PDE4-inhibiting activity on an enzyme preparation obtained from the U937 cell line
# Assay type: biochemical
# Description: In the case of the PDE4 enzymes, this value is compared with that of rolipram, a specific PDE4 inhibitor. […] Measurement of the enzyme activity of the different types of PDE, and especially of the PDE4 enzymes, is then carried out according to a method adapted from W. J. Thompson, ibidem.
row,SMILES,pIC50
1,"COCc1nc2ccccc2c(=O)n1C1N=C(c2ccccc2)c2cc(C)cc3c2N(CC3)C1=O (stereo not shown) [Example 17A, 9-Methyl-3-(2-methyloxymethyl-4-oxo-4H-quinazolin-3-yl)-1-phenyl-6,7-dihydro-3H-[1,4]diazepino[6,7,1-hi]indol-4-one]",6.86
2,"Cc1cc2c3c(c1)C(c1ccccc1)=NC(n1c(CO)nc4ccccc4c1=O)C(=O)N3CC2 (stereo not shown) [Example 17B, 9-Methyl-3-(2-hydroxymethyl-4-oxo-4H-quinazolin-3-yl)-1-phenyl-6,7-dihydro-3H-[1,4]diazepino[6,7,1-hi]indol-4-one]",6.66
3,"Cc1cc2c3c(c1)C(c1ccccc1)=NC(n1c(COC(=O)CCC(=O)O)nc4ccccc4c1=O)C(=O)N3CC2 (stereo not shown) [Example 17C, [3-(9-Methyl-4-oxo-1-phenyl-3,4,6,7-tetrahydro-[1,4]diazepino[6,7,1-hi]indol-3-yl)-4-oxo-3,4-dihydroquinazolin-2-yl]methyl hydrogen succinate]",6.47
4,"COCCOCCOCC(=O)OCc1nc2ccccc2c(=O)n1C1N=C(c2ccccc2)c2cc(C)cc3c2N(CC3)C1=O (stereo not shown) [Example 17D, [3-(9-Methyl-4-oxo-1-phenyl-3,4,6,7-tetrahydro-[1,4]diazepino[6,7,1-hi]iondol-3-yl)-4-oxo-3,4-dihydroquinazolin-2-yl]methanol [2-(2-methoxyethoxy)ethoxy]acetate]",6.54
5,"Cc1cc2c3c(c1)C(c1ccccc1)=NC(n1c(COC(=O)CCC(=O)NCCN4CCOCC4)nc4ccccc4c1=O)C(=O)N3CC2 (stereo not shown) [Example 17E, 3-(9-Methyl-4-oxo-1-phenyl-3,4,6,7-tetrahydro-[1,4]diazepino [6,7,1-hi]indol-3-yl)-4-oxo-3,4-dihydroquinazolin-2-ylmethyl N-(2-morpholin-4-ylethyl)succinamate]",6.65
6,"Cc1cc2c3c(c1)C(c1ccccc1)=NC(n1c(COC(=O)CCC(=O)OCCN4CCOCC4)nc4ccccc4c1=O)C(=O)N3CC2 (stereo not shown) [Example 17F, 3-(9-Methyl-4-oxo-1-phenyl-3,4,6,7-tetrahydro-[1,4]diazepino[6,7,1-hi]indol-3-yl)-4-oxo-3,4-dihydroquinazolin-2-ylmethyl 2-morpholin-4-ylethyl succinnate]",6.83
7,"COC(=O)[C@H](CCCCNC(=O)OC(C)(C)C)NC(=O)CCC(=O)OCc1nc2ccccc2c(=O)n1C1N=C(c2ccccc2)c2cc(C)cc3c2N(CC3)C1=O (stereo partly shown) [Example 17G, Methyl 6-t-butoxycarbonylamino-2-{3-[3-(9-methyl-4-oxo-1-phenyl-3,4,6,7-tetrahydro-[1,4]diazepino[6,7,1-hi]indol-3-yl)-4-oxo-3,4-dihydroquinazolin-2-ylmethoxycarbonyl]propionylamino}hexanoate]",6.29
8,"CCOC(=O)CCc1nc2ccccc2c(=O)n1C1N=C(c2ccccc2)c2cc(C)cc3c2N(CC3)C1=O (stereo not shown) [Example 17H, Ethyl 3-[3-(9-methyl 4oxo-1-phenyl-3,4,6,7-tetrahydro[1,4]diazepino[6,7,1-hi]indol-3-yl)-4-oxo-3,4-dihydroquinazolin-2-yl]propanoate]",6.74
9,"Cc1cc2c3c(c1)C(c1ccccc1)=NC(n1cnc4ccccc4c1=O)C(=O)N3CC2 (stereo not shown) [Example 18, 3(9-Methyl-3-oxo-4H-quinazolin-3-yl)-1-phenyl-6,7-dihydro-3H-[1,4]diazepino[6,7,1-hi]indol-4one]",6.08
10,"Cc1cc2c3c(c1)C(c1ccccc1)=N[C@@H](n1c(C)nc4cnccc4c1=O)C(=O)N3CC2 [Example 19, (3S)-3-(2-Methyl-4-oxo-4H-pyrido[3,4-d]-pyrimidin-3-yl)-9-methyl-1-phenyl-6,7-dihydro-3H-[1,4]diazepino[6,7,1-hi]indol-1-one]",6.71
11,"Cc1ccc2nc(C)n(C3N=C(c4ccccc4)c4cc([N+](=O)[O-])cc5c4N(CC5)C3=O)c(=O)c2c1 (stereo not shown) [Example 22, 3-(2,6-Dimethyl-4-oxo-4H-quinazolin-3-yl)-9-nitro-1-phenyl-6,7-dihydro-3H-[1,4]diazepino-[6,7,1-hi]indol-4-one]",5.76
12,"Cc1ccc2c(=O)n(C3N=C(c4ccccc4)c4cc([N+](=O)[O-])cc5c4N(CC5)C3=O)c(C)nc2c1 (stereo not shown) [Example 23, 3-(2,7-Dimethyl-4-oxo-4H-quinazolin-3-yl)-9-nitro-1-phenyl-6,7-dihydro-3H-[1,4]diazepino-[6,7,1-hi]indol-4-one]",6.30
13,"Cc1cccc2c(=O)n(C3N=C(c4ccccc4)c4cc([N+](=O)[O-])cc5c4N(CC5)C3=O)c(C)nc12 (stereo not shown) [Example 24, 3-(2,8-Dimethyl-4-oxo-4H-quinazolin-3-yl)-9-nitro-1-phenyl-6,7-dihydro-3H-[1,4]diazepino-[6,7,1-hi]indol-4-one]",4.51
14,"Cc1cc(C)c2nc(C)n(C3N=C(c4ccccc4)c4cc([N+](=O)[O-])cc5c4N(CC5)C3=O)c(=O)c2c1 (stereo not shown) [Example 25, 3(2,6,8-Trimethyl-4-oxo-4H-quinazolin-3-yl)-9-nitro-1-phenyl-6,7-dihydro-3H-[1,4]diazepino[6,7,1-hi]indol-4-one]",< 4.00
15,"Cc1cc(Br)c2nc(C)n(C3N=C(c4ccccc4)c4cc([N+](=O)[O-])cc5c4N(CC5)C3=O)c(=O)c2c1 (stereo not shown) [Example 26, 3-(8-Bromo-2,6-dimethyl-4-oxo-4H-quinazolin-3-yl)-9-nitro-1-phenyl-6,7-dihydro-3H-[1,4]diazepino-[6,7,1-hi]indol-4-one]",4.04
16,"Cc1nc2ccccc2c(=O)n1[C@@H]1N=C(c2ccccc2)c2cc(N)cc3c2N(CC3)C1=O [Example 28, (3S)-9-Amino-3-(2-methyl-4oxo-4H-quinazolin-3-yl)-1-phenyl-6,7-dihydro-3H-[1,4]diazepino[6,7,1-hi]indol-4-one]",8.30

row,SMILES,pIC50
1,"COC(=O)c1ccc2c(=O)n(C3N=C(c4ccccc4)c4cc(N)cc5c4N(CC5)C3=O)c(C)nc2c1 (stereo not shown) [Example 28A, Methyl 3-(9-amino-4-oxo-1-phenyl-3,4,6,7-tetrahydro-[1,4]diazepino[6,7,1-hi]indol-3-yl)-2-methyl-4-oxo-3,4-dihydroquinazoline-7-carboxylate]",8.30
2,COC(=O)c1ccc2c(=O)n(C3N=C(c4ccccc4)c4cc(N)cc5c4N(CC5)C3=O)c(C)nc2c1 (stereo not shown) [Example 28B],8.52
3,COC(=O)c1ccc2c(=O)n(C3N=C(c4ccccc4)c4cc(N)cc5c4N(CC5)C3=O)c(C)nc2c1 (stereo not shown) [Example 28C],7.15
4,"Cc1nc2cc(C(=O)O)ccc2c(=O)n1C1N=C(c2ccccc2)c2cc(N)cc3c2N(CC3)C1=O (stereo not shown) [Example 28D, 3-(9-Amino-4oxo-1-phenyl-3,4,6,7-tetrahydro[1,4]diazepino[6,7,1-hi]indol-3-yl)-2-methyl-4-oxo-3,4-dihydroquinazoline-7-carboxylic acid]",8.05
5,"Cc1nc2ccccc2c(=O)n1C1N=C(c2ccccc2)c2cc(N)cc3c2N(CC3)C1=O (stereo not shown) [Example 29, 9-Amino-3-(2-methyl-4-oxo-4H-quinazolin-3-yl)-1-phenyl-6,7-dihydro-3H-[1,4]diazepino[6,7,1-hi]indol-4-one]",7.89
6,"Cc1cccc2nc(C)n(C3N=C(c4ccccc4)c4cc(N)cc5c4N(CC5)C3=O)c(=O)c12 (stereo not shown) [Example 30, 9-Amino-3-(2,5-dimethyl-4-oxo-4H-quinazolin-3-yl)-1-phenyl-6,7-dihydro-3H-[1,4]diazepino[6,7,1-hi]indol-4-one]",8.10
7,"Cc1ccc2nc(C)n(C3N=C(c4ccccc4)c4cc(N)cc5c4N(CC5)C3=O)c(=O)c2c1 (stereo not shown) [Example 31, 9-Amino-3-(2,6dimethyl-4-oxo-4H-quinazolin-^3-yl)-1-phenyl-6,7-dihydro-3H-[1,4]diazepino[6,7,1-hi]indol-4-one]",7.06
8,"Cc1cccc2c(=O)n(C3N=C(c4ccccc4)c4cc(N)cc5c4N(CC5)C3=O)c(C)nc12 (stereo not shown) [Example 32, 9-Amino-3-(2,8-dimethyl-4-oxo-4H-quinazolin-3-yl)-l1-phenyl-6,7-dihydro-3H-[1,4]diazepino[6,7,1-hi]indole-4-one]",7.26
9,"Cc1cc(C)c2nc(C)n(C3N=C(c4ccccc4)c4cc(N)cc5c4N(CC5)C3=O)c(=O)c2c1 (stereo not shown) [Example 33, 9-Amino-3-(2,6,8-trimethyl-4-oxo-4H-quinazolin-3-yl)-1-phenyl-6,7-dihydro-3H-[1,4]diazepino[6,7,1-hi]indol-4-one]",6.81
10,"Cc1nc2cnccc2c(=O)n1C1N=C(c2ccccc2)c2cc(N)cc3c2N(CC3)C1=O (stereo not shown) [Example 34, 9-Amino-3-(2-methyl-4-oxo-4H-pyrido[3,4-d]pyrimidin-3-yl)-1-phenyl-6,7-dihydro-3H-[1,4]diazepino[6,7,1-hi]indol-4-one]",7.38
11,"Cc1nc2cccc(Cl)c2c(=O)n1C1N=C(c2ccccc2)c2cc(N)cc3c2N(CC3)C1=O (stereo not shown) [Example 34B, 9-Amino-3-(5-chloro-2-methyl-4-oxo-4H-quinazolin-3-yl)-1-phenyl-6,7-dihydro-3H-[1,4]diazepino[6,7,1-hi]indol-4-one]",8.52
12,"Cc1cc2c3c(c1)C(c1ccccc1)=NC(n1c(C)nc4cc(C(=O)N[C@H](C(=O)O)C(C)C)ccc4c1=O)C(=O)N3CC2 (stereo partly shown) [Example 35, N-(2-methyl-3-(9-methyl-4-oxo-1-phenyl-3,4,6,7-tetrahydro[1,4]diazepino[6,7,1-hi]indol-3-yl)-4-oxo-3,4-dihydroquinazoline-7-carbonyl)valine]",6.97
13,"Cc1cc2c3c(c1)C(c1ccccc1)=NC(n1c(C)nc4cc(C(=O)N[C@@H](Cc5ccc(O)cc5)C(=O)O)ccc4c1=O)C(=O)N3CC2 (stereo partly shown) [Example 35A, N-(2-Methyl-3-(9-methyl-4-oxo-1-phenyl-3,4,6,7-tetrahydro[1,4]diazepino[6,7,1-hi]indol-3-yl)-4-oxo-3,4-dihydroquinazoline-7-carboxyl)tyrosine]",7.06
14,Cc1cc2c3c(c1)C(c1ccccc1)=NC(n1c(C)nc4cc(C(=O)N[C@@H](C)C(=O)O)ccc4c1=O)C(=O)N3CC2 (stereo partly shown) [Example 35B],6.72
15,"Cc1cc2c3c(c1)C(c1ccccc1)=NC(n1c(C)nc4cc(C(=O)N[C@@H](Cc5ccccc5)C(=O)O)ccc4c1=O)C(=O)N3CC2 (stereo partly shown) [Example 35C, N-(2-Methyl-3-(9-methyl-4-oxo-1-phenyl-3,4,6,7-tetrahydrol[1,4]diazepino[6,7,1-hi]indol-3-yl)-4-oxo-3,4-dihydroquinazoline-7-carboxyl)phenylalanine]",6.95
